{
  "source": "patent US8569344B2",
  "about": "“N-piperidinyl acetamide derivatives as calcium channel blockers” (Zalicus Pharmaceuticals Ltd., priority 2008, dated 2013)",
  "biological_target": "T1, human α1H T-type channels (Homo sapiens, UniProt O95180)",
  "T1 construct": "expressed in transfected cells; host or cells: HEK 293",
  "T1 sequence (O95180 whole entry)": "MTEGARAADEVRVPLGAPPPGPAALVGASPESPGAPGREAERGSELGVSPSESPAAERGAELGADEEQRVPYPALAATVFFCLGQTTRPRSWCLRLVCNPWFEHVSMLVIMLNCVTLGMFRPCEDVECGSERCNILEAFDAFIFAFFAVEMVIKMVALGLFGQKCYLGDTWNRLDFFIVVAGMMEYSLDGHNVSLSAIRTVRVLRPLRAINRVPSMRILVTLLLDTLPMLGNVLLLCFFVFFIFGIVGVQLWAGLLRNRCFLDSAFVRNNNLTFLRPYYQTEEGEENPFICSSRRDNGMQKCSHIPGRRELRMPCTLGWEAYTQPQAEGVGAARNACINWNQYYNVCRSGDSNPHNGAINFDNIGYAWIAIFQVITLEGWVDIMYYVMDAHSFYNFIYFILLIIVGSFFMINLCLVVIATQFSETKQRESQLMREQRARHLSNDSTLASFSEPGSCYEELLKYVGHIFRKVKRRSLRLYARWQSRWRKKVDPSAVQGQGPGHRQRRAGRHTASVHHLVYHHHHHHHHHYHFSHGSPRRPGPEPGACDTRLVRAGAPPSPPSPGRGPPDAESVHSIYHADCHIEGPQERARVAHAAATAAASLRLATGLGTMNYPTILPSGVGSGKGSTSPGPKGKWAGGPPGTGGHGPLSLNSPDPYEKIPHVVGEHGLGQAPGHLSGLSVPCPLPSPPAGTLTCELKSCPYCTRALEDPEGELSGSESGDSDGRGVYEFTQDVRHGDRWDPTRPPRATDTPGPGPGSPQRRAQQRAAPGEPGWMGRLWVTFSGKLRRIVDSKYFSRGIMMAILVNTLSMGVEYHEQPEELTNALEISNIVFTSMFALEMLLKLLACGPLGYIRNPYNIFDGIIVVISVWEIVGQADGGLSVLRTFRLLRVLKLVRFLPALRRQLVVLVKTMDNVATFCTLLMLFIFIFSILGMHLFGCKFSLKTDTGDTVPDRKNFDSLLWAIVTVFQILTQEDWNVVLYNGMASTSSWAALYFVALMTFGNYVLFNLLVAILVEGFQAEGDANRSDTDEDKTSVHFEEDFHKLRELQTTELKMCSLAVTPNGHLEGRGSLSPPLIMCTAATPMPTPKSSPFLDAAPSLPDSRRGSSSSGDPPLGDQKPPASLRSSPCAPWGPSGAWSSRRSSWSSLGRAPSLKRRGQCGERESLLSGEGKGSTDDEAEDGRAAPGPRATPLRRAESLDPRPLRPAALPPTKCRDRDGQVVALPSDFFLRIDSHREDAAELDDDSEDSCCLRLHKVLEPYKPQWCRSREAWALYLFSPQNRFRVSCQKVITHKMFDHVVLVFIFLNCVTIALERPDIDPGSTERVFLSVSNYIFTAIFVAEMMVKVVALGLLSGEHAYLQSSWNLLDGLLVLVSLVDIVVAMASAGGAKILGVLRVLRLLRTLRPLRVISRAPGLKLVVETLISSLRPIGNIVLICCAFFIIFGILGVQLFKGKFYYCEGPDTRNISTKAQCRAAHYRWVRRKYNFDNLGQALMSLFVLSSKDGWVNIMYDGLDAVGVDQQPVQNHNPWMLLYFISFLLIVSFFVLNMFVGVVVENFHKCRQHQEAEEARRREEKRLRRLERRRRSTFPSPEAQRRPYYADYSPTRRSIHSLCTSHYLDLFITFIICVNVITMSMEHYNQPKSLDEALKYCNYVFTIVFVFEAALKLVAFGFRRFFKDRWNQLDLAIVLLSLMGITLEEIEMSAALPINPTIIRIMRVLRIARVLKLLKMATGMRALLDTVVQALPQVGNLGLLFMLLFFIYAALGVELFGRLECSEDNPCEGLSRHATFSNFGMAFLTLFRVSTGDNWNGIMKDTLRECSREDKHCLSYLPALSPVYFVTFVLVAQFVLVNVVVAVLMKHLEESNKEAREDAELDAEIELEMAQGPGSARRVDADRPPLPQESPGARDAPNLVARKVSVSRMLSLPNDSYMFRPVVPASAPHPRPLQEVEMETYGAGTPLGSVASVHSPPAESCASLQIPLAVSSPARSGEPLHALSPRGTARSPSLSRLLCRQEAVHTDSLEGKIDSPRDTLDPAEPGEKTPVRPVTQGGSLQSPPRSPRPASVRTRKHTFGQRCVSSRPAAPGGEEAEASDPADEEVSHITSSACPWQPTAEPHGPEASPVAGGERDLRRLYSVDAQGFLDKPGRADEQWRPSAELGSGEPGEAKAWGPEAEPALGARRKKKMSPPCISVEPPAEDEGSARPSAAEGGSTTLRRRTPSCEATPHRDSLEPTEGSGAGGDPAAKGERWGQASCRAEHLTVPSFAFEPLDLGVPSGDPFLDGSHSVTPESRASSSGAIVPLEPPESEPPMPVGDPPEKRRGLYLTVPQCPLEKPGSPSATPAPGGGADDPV",
  "experiment": "T-type calcium channel block, whole cell patch clamp in HEK cells (α1H)",
  "type": "cell-based",
  "settings": "HEK cells, patch clamp, mainly non-inactivated protocol; values above 10 μM shown as 10 μM; read-out: T-type Calcium Channel Block α1H IC50",
  "method": "T-type calcium channel blocking activity was assayed in human embryonic kidney cells, HEK 293, stably transfected with the T-type calcium channel subunits. Briefly, cells were cultured in Dulbecco's modified eagle medium (DMEM) supplemented with 10% fetal bovine serum, 200 U/ml penicillin and 0.2 mg/ml streptomycin at 37° C. with 5% CO2. At 85% confluency cells were split with 0.25% trypsin/1 mM EDTA and plated at 10% confluency on glass coverslips. […] Fresh DMEM was supplied and the cells transferred to 28° C./5% CO2. Cells were incubated for 1 to 2 days prior to whole cell recording.\nStandard patch-clamp techniques were employed to identify blockers of T-type currents. Briefly, previously described HEK cell lines stably expressing human α1G, α1H and α1I T-type channels were used for all the recordings (passage #: 4-20, 37° C., 5% CO2). Whole cell patch clamp experiments were performed using an Axopatch 200B amplifier (Axon Instruments, Burlingame, Calif.) linked to a personal computer equipped with pCLAMP software. Data were analyzed using Clampfit (Axon Instruments) and SigmaPlot 4.0 (Jandel Scientific). To obtain T-type currents, plastic dishes containing semi-confluent cells were positioned on the stage of a ZEISS AXIOVERT S100 microscope after replacing the culture medium with external solution (see below). Whole-cell patches were obtained using pipettes (borosilicate glass with filament, O.D.: 1.5 mm, I.D.: 0.86 mm, 10 cm length), fabricated on a SUTTER P-97 puller with resistance values of ˜5 MΩ (see below for internal solution).\nIn the non-inactivating protocol, the holding potential is set at −110 mV and with a pre-pulse at −100 mV for 1 second prior to the test pulse at −40 mV for 50 ms.\nTest compounds were dissolved in external solution, 0.1-0.01% DMSO. After ˜10 min rest, they were applied by gravity close to the cell using a WPI microfil tubing. The “non-inactivated” pre-pulse was used to examine the resting block of a compound. The “inactivated” protocol was employed to study voltage-dependent block. […] Values are shown in μM and values above 10 μM are simply represented as 10 μM.",
  "data": [
    {"smiles": "O=C(CN1CCC(CNC(=O)c2cc(C(F)(F)F)cc(C(F)(F)F)c2)CC1)N[C@H]1CC[C@H](O)CC1", "note": "[Compound 96, N-((1-(2-((1r,4r)-4-hydroxycyclo-hexylamino)-2-oxoethyl)piperidin-4-yl)methyl)-3,5-bis(trifluoromethyl) benzamide]", "values": [
      {"measurement": "IC50", "value": "> 10000", "unit": "nM"}
    ]},
    {"smiles": "C[C@H]1CC[C@H](NC(=O)CN2CCC(CNC(=O)c3cc(C(F)(F)F)cc(C(F)(F)F)c3)CC2)CC1", "note": "[Compound 97, N-((1-(2-((1r,4r)-4-methylcyclo-hexylamino)-2-oxoethyl)piperidin-4-yl)methyl)-3,5-bis(trifluoromethyl) benzamide]", "values": [
      {"measurement": "IC50", "value": 100, "unit": "nM"}
    ]},
    {"smiles": "O=C(NCC1CCN(CC(=O)N2CCCC(O)C2)CC1)c1cc(C(F)(F)F)cc(C(F)(F)F)c1", "note": "(centres unmarked) [Compound 98, N-((1-(2-(3-hydroxypiperidin-1-yl)-2-oxoethyl)piperidin-4-yl)methyl)-3,5-bis(trifluoromethyl)benzamide]", "values": [
      {"measurement": "IC50", "value": 3600, "unit": "nM"}
    ]},
    {"smiles": "CC1CCCN(C(=O)CN2CCC(CNC(=O)c3cc(C(F)(F)F)cc(C(F)(F)F)c3)CC2)C1", "note": "(centres unmarked) [Compound 99, N-((1-(2-(3-methylpiperidin-1-yl)-2-oxoethyl)piperidin-4-yl)methyl)-3,5-bis(trifluoromethyl)benzamide]", "values": [
      {"measurement": "IC50", "value": 210, "unit": "nM"}
    ]},
    {"smiles": "CCC1CCCCN1C(=O)CN1CCC(CNC(=O)c2cc(C(F)(F)F)cc(C(F)(F)F)c2)CC1", "note": "(centres unmarked) [Compound 100, N-((1-(2-(2-ethylpiperidin-1-yl)-2-oxoethyl)piperidin-4-yl)methyl)-3,5-bis(trifluoromethyl)benzamide]", "values": [
      {"measurement": "IC50", "value": 100, "unit": "nM"}
    ]},
    {"smiles": "CN(C(=O)CN1CCC(CNC(=O)c2cc(C(F)(F)F)cc(C(F)(F)F)c2)CC1)C1CCCCC1", "note": "[Compound 101, N-((1-(2-(cyclohexyl(methyl)amino)-2-oxoethyl)piperidin-4-yl)methyl)-3,5-bis(trifluoromethyl)benzamide]", "values": [
      {"measurement": "IC50", "value": 140, "unit": "nM"}
    ]},
    {"smiles": "O=C(NCC1CCN(CC(=O)N2CCC(O)CC2)CC1)c1cc(C(F)(F)F)cc(C(F)(F)F)c1", "note": "[Compound 102, N-((1-(2-(4-hydroxypiperidin-1-yl)-2-oxoethyl)piperidin-4-yl)methyl)-3,5-bis(trifluoromethyl)benzamide]", "values": [
      {"measurement": "IC50", "value": "> 10000", "unit": "nM"}
    ]},
    {"smiles": "COC1CCN(C(=O)CN2CCC(CNC(=O)c3cc(C(F)(F)F)cc(C(F)(F)F)c3)CC2)CC1", "note": "[Compound 103, N-((1-(2-(4-methoxypiperidin-1-yl)-2-oxoethyl)piperidin-4-yl)methyl)-3,5-bis(trifluoromethyl)benzamide]", "values": [
      {"measurement": "IC50", "value": 1210, "unit": "nM"}
    ]},
    {"smiles": "C[C@@H]1CCCCN1C(=O)CN1CCC(CNC(=O)c2cc(C(F)(F)F)cc(C(F)(F)F)c2)CC1", "note": "[Compound 104, (R)-N-((1-(2-(2-methylpiperidin-1-yl)-2-oxoethyl)piperidin-4-yl)methyl)-3,5-bis(trifluoromethyl)benzamide]", "values": [
      {"measurement": "IC50", "value": 140, "unit": "nM"}
    ]},
    {"smiles": "CCC1CCCN1C(=O)CN1CCC(CNC(=O)c2cc(C(F)(F)F)cc(C(F)(F)F)c2)CC1", "note": "(centres unmarked) [Compound 105, N-((1-(2-(2-ethylpyrrolidin-1-yl)-2-oxoethyl)piperidin-4-yl)methyl)-3,5-bis(trifluoromethyl)benzamide]", "values": [
      {"measurement": "IC50", "value": 280, "unit": "nM"}
    ]},
    {"smiles": "O=C(NCC1CCN(CC(=O)N2CCC(CO)CC2)CC1)c1cc(C(F)(F)F)cc(C(F)(F)F)c1", "note": "[Compound 106, N-((1-(2-(4-(hydroxymethyl)piperidin-1-yl)-2-oxoethyl)piperidin-4-yl)methyl)-3,5-bis(trifluoromethyl)benzamide]", "values": [
      {"measurement": "IC50", "value": 5560, "unit": "nM"}
    ]},
    {"smiles": "O=C(NCC1CCN(CC(=O)N2CCCC2C(F)(F)F)CC1)c1cc(C(F)(F)F)cc(C(F)(F)F)c1", "note": "(centres unmarked) [Compound 107, N-((1-(2-oxo-2-(2-(trifluoromethyl)pyrrolidin-1-yl)ethyl)piperidin-4-yl)methyl)-3,5-bis(trifluoromethyl) benzamide]", "values": [
      {"measurement": "IC50", "value": 160, "unit": "nM"}
    ]},
    {"smiles": "O=C(NCC1CCN(CC(=O)N2CCC(C(F)(F)F)CC2)CC1)c1cc(C(F)(F)F)cc(C(F)(F)F)c1", "note": "[Compound 108, N-((1-(2-oxo-2-(4-(trifluoromethyl)piperidin-1-yl)ethyl)piperidin-4-yl)methyl)-3,5-bis(trifluoromethyl) benzamide]", "values": [
      {"measurement": "IC50", "value": 250, "unit": "nM"}
    ]},
    {"smiles": "O=C(CC1CCN(C(=O)C2(O)CCNCC2)CC1)Nc1cc(C(F)(F)F)cc(C(F)(F)F)c1", "note": "[Compound 157, N-(3,5-bis(trifluoromethyl)phenyl)-2-(1-(4-hydroxypiperidine-4-carbonyl)piperidin-4-yl)acetamide]", "values": [
      {"measurement": "IC50", "value": "> 10000", "unit": "nM"}
    ]},
    {"smiles": "O=C(NCC1CCN(C(=O)CN2CC[C@@H](O)C2)CC1)c1cc(C(F)(F)F)cc(C(F)(F)F)c1", "note": "[Compound 263, (R)-N-((1-(2-(3-hydroxypyrrolidin-1-yl)acetyl)piperidin-4-yl)methyl)-3,5-bis(trifluoromethyl)benzamide]", "values": [
      {"measurement": "IC50", "value": "> 10000", "unit": "nM"}
    ]},
    {"smiles": "O=C(NCC1CCN(C(=O)CNC2CC2)CC1)c1cc(F)cc(C(F)(F)F)c1", "note": "[Compound 284, N-((1-(2-(cyclopropylamino)acetyl)piperidin-4-yl)methyl)-3-fluoro-5-(trifluoromethyl)benzamide]", "values": [
      {"measurement": "IC50", "value": "> 10000", "unit": "nM"}
    ]},
    {"smiles": "O=C(NCC1CCN(CCN2CCCC2=O)CC1)c1cc(F)cc(C(F)(F)F)c1", "note": "[Compound 487, 3-fluoro-N-((1-(2-(2-oxopyrrolidin-1-yl)ethyl)piperidin-4-yl)methyl)-5-(trifluoromethyl)benzamide]", "values": [
      {"measurement": "IC50", "value": "> 10000", "unit": "nM"}
    ]},
    {"smiles": "CS(=O)(=O)c1cc(C(=O)NCC2CCN(CC(=O)N3CCC[C@@H]3C(F)(F)F)CC2)cc(C(F)(F)F)c1", "note": "[Compound 589, (R)-3-(methylsulfonyl)-N-((1-(2-oxo-2-(2-(trifluoromethyl)pyrrolidin-1-yl)ethyl)piperidin-4-yl)methyl)-5-(trifluoromethyl) benzamide]", "values": [
      {"measurement": "IC50", "value": "> 10000", "unit": "nM"}
    ]},
    {"smiles": "COc1cc(Cl)cc(C(=O)NCC2CCN(CC(=O)N(C)C3(C)CCC3)CC2)c1", "note": "[Compound 591, 3-chloro-5-methoxy-N-((1-(2-(methyl(1-methylcyclobutyl)amino)-2-oxoethyl)piperidin-4-yl)methyl)benzamide]", "values": [
      {"measurement": "IC50", "value": 170, "unit": "nM"}
    ]},
    {"smiles": "CN(C(=O)CN1CCC(CNC(=O)c2cc(Cl)cc(Cl)c2)CC1)C1(C)CCC1", "note": "[Compound 592, 3,5-dichloro-N-((1-(2-(methyl(1-methylcyclobutyl)amino)-2-oxoethyl)piperidin-4-yl)methyl) benzamide]", "values": [
      {"measurement": "IC50", "value": 80, "unit": "nM"}
    ]},
    {"smiles": "CN(C(=O)CN1CCC(CNC(=O)c2cccc(Br)c2)CC1)C1(C)CCC1", "note": "[Compound 593, 3-bromo-N-((1-(2-(methyl(1-methylcyclobutyl)amino)-2-oxoethyl)piperidin-4-yl)methyl) benzamide]", "values": [
      {"measurement": "IC50", "value": 260, "unit": "nM"}
    ]},
    {"smiles": "CN(C(=O)CN1CCC(CNC(=O)c2cc(Cl)cc(Br)c2)CC1)C1(C)CCC1", "note": "[Compound 595, 3-bromo-5-chloro-N-((1-(2-(methyl(1-methylcyclobutyl)amino)-2-oxoethyl)piperidin-4-yl)methyl)benzamide]", "values": [
      {"measurement": "IC50", "value": 80, "unit": "nM"}
    ]},
    {"smiles": "COc1cc(Cl)cc(C(=O)NCC2CCN(CC(=O)N(C)C(C)(C)C)CC2)c1", "note": "[Compound 596, N-((1-(2-(tert-butyl(methyl)amino)-2-oxoethyl)piperidin-4-yl)methyl)-3-chloro-5-methoxy-benzamide]", "values": [
      {"measurement": "IC50", "value": 160, "unit": "nM"}
    ]},
    {"smiles": "CC(C)(C)OC(=O)N1CC(N2CCC(CNC(=O)c3cc(F)cc(Cl)c3)CC2)C1", "note": "[Compound 597, tert-buyl 3-(4-((3-chloro-5-fluorobenzamido)methyl)piperidin-1-yl)azetidine-1-carboxylate]", "values": [
      {"measurement": "IC50", "value": 6520, "unit": "nM"}
    ]},
    {"smiles": "CC(C)(C)OC(=O)N1CCC(O)(CN2CCC(CNC(=O)c3cc(F)cc(Cl)c3)CC2)CC1", "note": "[Compound 598, tert-butyl 4-((4-((3-chloro-5-fluorobenzamido)methyl)piperidin-1-yl)methyl)-4-hydroxypiperidine-1-carboxylate]", "values": [
      {"measurement": "IC50", "value": 1650, "unit": "nM"}
    ]},
    {"smiles": "CC(C)(C)OC(=O)N1CCC(O)(CN2CCC(CNC(=O)c3cc(F)cc(C(F)(F)F)c3)CC2)CC1", "note": "[Compound 599, tert-butyl 4-((4-((3-fluoro-5-(trifluoromethyl)benzamido)methyl)piperidin-1-yl)methyl)-4-hydroxy-piperidine-1-carboxylate]", "values": [
      {"measurement": "IC50", "value": 1470, "unit": "nM"}
    ]},
    {"smiles": "COc1cc(Cl)cc(C(=O)N2CC(N3CCC(CNC(=O)c4cc(F)cc(Cl)c4)CC3)C2)c1", "note": "[Compound 600, 3-chloro-N-((1-(1-(3-chloro-5-methoxybenzoyl)azetidin-3-yl)piperidin-4-yl)methyl)-5-fluoro-benzamide]", "values": [
      {"measurement": "IC50", "value": 2050, "unit": "nM"}
    ]},
    {"smiles": "O=C(NCC1CCN(C2CN(C(=O)c3cc(Cl)cc(Cl)c3)C2)CC1)c1cc(F)cc(Cl)c1", "note": "[Compound 601, 3-chloro-N-((1-(1-(3,5-dichlorobenzoyl)azetidin-3-yl)piperidin-4-yl)methyl)-5-fluoro-benzamide]", "values": [
      {"measurement": "IC50", "value": 1870, "unit": "nM"}
    ]},
    {"smiles": "O=C(NCC1CCN(C2CN(C(=O)c3cccc(Br)c3)C2)CC1)c1cc(F)cc(Cl)c1", "note": "[Compound 602, N-((1-(1-(3-bromobenzoyl)azetidin-3-yl)piperidin-4-yl)methyl)-3-chloro-5-fluorobenzamide]", "values": [
      {"measurement": "IC50", "value": 2410, "unit": "nM"}
    ]}
  ]
}
